Measured values reported in patent US20050113292A1 (priority 2003, published 2005).

Legend:
T-tropic (R8) HIV-1 = details: T-tropic (R8)
M-tropic (BAL) HIV-1 = details: M-tropic (BAL)
[1] = tested on: HIV-1 mediated cell-cell fusion (R8 virus); details: mediated cell-cell fusion (R8 virus)

SMILES	IC50 (T-tropic (R8) HIV-1)	IC50 (M-tropic (BAL) HIV-1)	IC50 [1]
CC(C)C[C@H](NC(=O)[C@H](CO)NC(=O)[C@H](C)NC(=O)[C@H](Cc1c[nH]c2ccccc12)NC(=O)[C@H](CCCCN)NC(=O)[C@H](CC(=O)O)NC(=O)[C@H](CC(C)C)NC(=O)[C@H](CCC(=O)O)NC(=O)[C@H](CC(C)C)NC(=O)[C@@H]1CSC(C(=O)NCCCC[C@H](NC(=O)CCNC(=O)C2N[C@H](C(=O)N[C@@H](CC(C)C)C(=O)N[C@@H](CCC(=O)O)C(=O)N[C@@H](CC(C)C)C(=O)N[C@@H](CC(=O)O)C(=O)N[C@@H](CCCCN)C(=O)N[C@@H](Cc3c[nH]c4ccccc34)C(=O)N[C@@H](C)C(=O)N[C@@H](CO)C(=O)N[C@@H](CC(C)C)C(=O)N[C@@H](Cc3c[nH]c4ccccc34)C(=O)N[C@@H](CC(N)=O)C(=O)N[C@@H](Cc3c[nH]c4ccccc34)C(=O)N[C@@H](Cc3ccccc3)C(=O)O)CS2)C(=O)N[C@@H](CO)C(=O)N[C@@H](CO)C(=O)N[C@@H](C)C(N)=O)N1)C(=O)N[C@@H](Cc1c[nH]c2ccccc12)C(=O)N[C@@H](CC(N)=O)C(=O)N[C@@H](Cc1c[nH]c2ccccc12)C(=O)N[C@@H](Cc1ccccc1)C(=O)O (stereo partly drawn) [Compound 2α-C13]	310 nM	430 nM	290 nM
CC(C)C[C@H](NC(=O)[C@H](CO)NC(=O)[C@H](C)NC(=O)[C@H](Cc1c[nH]c2ccccc12)NC(=O)[C@H](CCCCN)NC(=O)[C@H](CC(=O)O)NC(=O)[C@H](CC(C)C)NC(=O)[C@H](CCC(=O)O)NC(=O)[C@H](CC(C)C)NC(=O)[C@H](CC(C)C)NC(=O)[C@H](CCC(=O)O)NC(=O)[C@H](CCC(N)=O)NC(=O)[C@H](CCC(=O)O)NC(=O)[C@H](CC(N)=O)NC(=O)[C@H](CCCCN)NC(=O)[C@H](CCC(=O)O)NC(=O)[C@H](CCC(N)=O)NC(=O)[C@H](CCC(N)=O)NC(=O)[C@H](CC(N)=O)NC(=O)[C@H](CCC(N)=O)NC(=O)[C@@H]1CSC(C(=O)NCCCC[C@H](NC(=O)CCNC(=O)C2N[C@H](C(=O)N[C@@H](CCC(N)=O)C(=O)N[C@@H](CC(N)=O)C(=O)N[C@@H](CCC(N)=O)C(=O)N[C@@H](CCC(N)=O)C(=O)N[C@@H](CCC(=O)O)C(=O)N[C@@H](CCCCN)C(=O)N[C@@H](CC(N)=O)C(=O)N[C@@H](CCC(=O)O)C(=O)N[C@@H](CCC(N)=O)C(=O)N[C@@H](CCC(=O)O)C(=O)N[C@@H](CC(C)C)C(=O)N[C@@H](CC(C)C)C(=O)N[C@@H](CCC(=O)O)C(=O)N[C@@H](CC(C)C)C(=O)N[C@@H](CC(=O)O)C(=O)N[C@@H](CCCCN)C(=O)N[C@@H](Cc3c[nH]c4ccccc34)C(=O)N[C@@H](C)C(=O)N[C@@H](CO)C(=O)N[C@@H](CC(C)C)C(=O)N[C@@H](Cc3c[nH]c4ccccc34)C(=O)N[C@@H](CC(N)=O)C(=O)N[C@@H](Cc3c[nH]c4ccccc34)C(=O)N[C@@H](Cc3ccccc3)C(=O)O)CS2)C(=O)N[C@@H](CO)C(=O)N[C@@H](CO)C(=O)N[C@@H](C)C(N)=O)N1)C(=O)N[C@@H](Cc1c[nH]c2ccccc12)C(=O)N[C@@H](CC(N)=O)C(=O)N[C@@H](Cc1c[nH]c2ccccc12)C(=O)N[C@@H](Cc1ccccc1)C(=O)O (stereo partly drawn) [Compound 2α-C24]	80 nM	67 nM	38 nM
